Experimental data: patent US20020137054A1, “AXOR35, a G-protein coupled receptor” (SmithKline Beecham Corporation & SmithKline Beecham plc, priority 1999, published 2002)
Where a name gives a salt, the structure may show the parent alone.

What was measured:
AXOR35 [1] = target: T1, AXOR35 (Homo sapiens, UniProt Q9H3N8); conditions: histamine challenge of control cells transiently expressing AXOR35
Protocol: Prior to challenge with histamine, cells transiently expressing AXOR35 are treated with increasing concentrations of test compound. […] Antagonist activity is calculated as the concentration of test compound required to inhibit 50% of a maximum histamine response (IC50).

AXOR35 [2] = target: T1, AXOR35; conditions: calcium mobilization response, method analogous to Example 8

T1 sequence (Q9H3N8 whole entry): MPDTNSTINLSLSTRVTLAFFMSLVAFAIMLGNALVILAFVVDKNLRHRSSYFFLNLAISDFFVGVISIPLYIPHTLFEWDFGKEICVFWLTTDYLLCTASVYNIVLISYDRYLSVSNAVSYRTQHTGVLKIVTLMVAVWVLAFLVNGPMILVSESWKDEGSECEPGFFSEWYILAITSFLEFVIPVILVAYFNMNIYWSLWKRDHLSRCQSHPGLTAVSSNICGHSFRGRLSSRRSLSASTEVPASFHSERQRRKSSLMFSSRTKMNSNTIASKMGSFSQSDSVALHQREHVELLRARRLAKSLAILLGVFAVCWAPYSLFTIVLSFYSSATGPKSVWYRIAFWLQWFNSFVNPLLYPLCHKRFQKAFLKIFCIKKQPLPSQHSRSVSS

NCC(c1ccccc1)c1cnc[nH]1 (stereo not shown) (as salt: hydrochloride)
melting point: 264 to 266 °C

NCC(Cc1ccc(Cl)cc1)c1c[nH]cn1 (stereo not shown) (as salt: hydrochloride)
melting point: 254 to 256 °C

NCCc1c[nH]cn1 [histamine, 1H-imidazole-4-ethanamine]
EC80 (AXOR35 [1]): 100 nM
ligand for AXOR35 (AXOR35 [2]): ligands for AXOR35
